How the values were obtained:
[1] = test system: Deinococcus strain MC2-2A; settings: ethanol added at T0, 45° C., aerobiosis, Complex medium Glucose, minimum concentration with total growth inhibition
Protocol: (§1) This method enables evaluation of the micro-organism sensitivity to ethanol. The test is carried out at 45° C. (Thermophilic strains). Ethanol bactericidy is determined with ethanol added at: • T0, • exponential phase, • stationary phase.
(§2) For ethanol bactericidy at T0, ethanol percentages between 0 to 10% are tested.
(§3) From a pre-culture in stationary phase in an enriched culture medium, for each ethanol content to be tested, 200 μl of Complex medium Glucose is seeded at 1% v/v.
(§4) Complex Medium Glucose contains: peptone 2 g/L, yeast extract 5 g/L and glucose 10 g/Lin osmosed water: solution sterilized by autoclaving (15 minutes at 120° C.). To this solution are added the following solutions: MOPS buffer solution (10×) pH7 [acid MOPS 400 mM, NH4Cl 200 mM, NaOH 100 mM, KOH 100 mM, CaCl2 5 μM, Na2SO4 2.76 mM, MgCl2 5.28 mM]; micronutrients (10000×) [[…] 300 mM, H3BO3 4 mM, CoCl2 0.3 mM, CuSO4 0.1 mM, MnCl2 2.5 mM, ZnSO4 0.1 mM]; FeCl3(100×) 2 mM in C6H5Na3O7 20 mM; K2HPO4 1 g/L: solutions sterilized by filtration (0.2 μm).
(§5) The test is performed in 96 wells microplates in aerobiosis. Ethanol evaporation is avoided using a sterile impermeable film.
(§6) The reading of the result is done by naked eye.

[2] = test system: Deinococcus strain M13-1A; settings: ethanol added at T0, 45° C., aerobiosis, Complex medium Glucose, minimum concentration with total growth inhibition
Protocol: as §1, §2, §3, §4, §5, §6

[3] = test system: Deinococcus strain MC2-2A; settings: 2 hours incubation, minimum concentration with loss of one log in relation to the control
Protocol: as §1
(§7) Ethanol Bactericidy at Exponential and Stationary Phases Test:
(§8) From a pre-culture in stationary phase in an enriched culture medium, for each ethanol content to be tested, 5 mL of Complex medium Glucose is seeded at 1% v/v.
as §4
(§9) A follow-up of growth is carried out using the control culture (no ethanol add neither at exponential phase nor at stationary phase). OD is read at 600 nm using a spectrophotometer (UV Light XS5, SECOMAM).
(§10) Once the exponential growth phase (optical density of 0.5 at 600 nm), or once the stationary phase (plateau), is reached, the solvent is added. The content tested is 0 to 20%. Then, cultures are incubated during 2 hours.
(§11) At the end of the incubation period and for each ethanol content tested, a count is taken to assess the influence of the ethanol on the strain.
(§12) Count: At the end of incubation, and for each concentration in solvent, 200 μL of culture are transferred onto another microplate and are diluted in cascade (dilutions at 1/10 over 9 wells). The dilution culture medium is an enriched medium.

[4] = test system: Deinococcus strain M13-1A; settings: ethanol added at exponential phase, 2 hours incubation, minimum concentration with loss of one log in relation to the control
Protocol: as §1, §7, §8, §4, §9, §10, §11, §12

CCO [Ethanol, ethanol]
Ethanol Bactericidy T0 [1]: 5% | Ethanol Bactericidy T0 [2]: 2.5% | Ethanol Bactericidy Exponential phase ([3]; ethanol added at exponential phase): 15% | Ethanol Bactericidy Stationary phase ([3]; ethanol added at stationary phase): 15% | Ethanol Bactericidy Exponential phase [4]: 5%
